In general, inhibition refers to the percentage by which the read-out fell short of the control.

The results in this text go back to publication PMC6934184, “Selective DNA-PKcs inhibition extends the therapeutic index of localized radiotherapy and chemotherapy” (The Journal of Clinical Investigation, 2019).

For the assay, the target named is T1, EPHA1 (Homo sapiens, UniProt P21709).
T1 construct: purchased Thermo Fisher Scientific (Life Technologies) SelectScreen
The assay is described as follows: SelectScreen Z'LYTE. The format is biochemical. The gist of the method:
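Compound tested in SelectScreen activity assays, Z'LYTE for CSF1R, CDK1/cyclin B and MAP2K6 and Adapta for CAMK1. ATP for CAMK1 was listed as 10, and Km app was used for CSF1R. Results are expressed in percent.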

T1 sequence (P21709 26-976): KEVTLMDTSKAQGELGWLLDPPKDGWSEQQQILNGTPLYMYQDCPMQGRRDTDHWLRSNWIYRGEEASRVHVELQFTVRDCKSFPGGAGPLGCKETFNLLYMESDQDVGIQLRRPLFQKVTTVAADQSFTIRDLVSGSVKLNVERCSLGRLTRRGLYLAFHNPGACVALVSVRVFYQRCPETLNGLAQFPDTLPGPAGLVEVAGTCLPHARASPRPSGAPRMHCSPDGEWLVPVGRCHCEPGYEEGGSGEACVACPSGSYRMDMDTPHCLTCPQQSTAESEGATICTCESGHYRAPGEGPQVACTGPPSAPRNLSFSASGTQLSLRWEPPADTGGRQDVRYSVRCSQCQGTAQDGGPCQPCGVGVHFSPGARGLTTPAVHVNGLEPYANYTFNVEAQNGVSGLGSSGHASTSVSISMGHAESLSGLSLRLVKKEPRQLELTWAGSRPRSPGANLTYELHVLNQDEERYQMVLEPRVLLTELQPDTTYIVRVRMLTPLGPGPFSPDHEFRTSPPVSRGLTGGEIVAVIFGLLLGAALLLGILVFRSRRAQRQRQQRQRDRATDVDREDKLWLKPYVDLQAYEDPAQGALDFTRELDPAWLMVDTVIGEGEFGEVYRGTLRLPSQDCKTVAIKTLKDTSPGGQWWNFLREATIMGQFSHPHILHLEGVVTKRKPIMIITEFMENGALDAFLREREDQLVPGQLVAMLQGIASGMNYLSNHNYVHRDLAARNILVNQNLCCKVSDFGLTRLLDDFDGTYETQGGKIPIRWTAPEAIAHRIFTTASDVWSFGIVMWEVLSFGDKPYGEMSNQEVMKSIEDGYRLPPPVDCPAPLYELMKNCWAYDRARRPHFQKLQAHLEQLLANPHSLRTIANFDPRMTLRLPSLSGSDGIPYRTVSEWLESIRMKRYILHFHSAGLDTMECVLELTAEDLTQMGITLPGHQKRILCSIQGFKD

The compound `CN(C(=O)CN1CCOCC1)c1ccc2sc3c(-c4cccc5c(=O)cc(N6CC7CCC(C6)O7)oc45)cccc3c2c1` [NU5455] displayed an inhibition at 1 µM of 2.7%.
